Format in all cases: in vivo
Assay [1] has as its system waterhemp (Amaranthus tuberculatus). The assay can be described thus: (12) Herbicidal effect test, pot, spray at 6.0 to 8.5 leaf stage. The conditions noted are these: 13th day after spraying. An excerpt:
(§1) [formula] • X: growth inhibition rate when treated with α (g/ha) of compound A, • Y: growth inhibition rate when treated with β (g/ha) of compound B, • E: growth inhibition rate expected when treated with α (g/ha) of compound A and β (g/ha) of compound B (expected value).
Upland soil was put in a 1/1,000,000 hectare pot, and seeds of waterhemp (Amaranthus tuberculatus) were sown. When waterhemp reached 6.0 to 8.5 leaf stage, a water-based suspension containing tiafenacil as the active ingredient, prepared by a conventional method for preparing a water-based suspension, and an emulsifiable concentrate containing S-metolachlor as the active ingredient (tradename: Dual Gold, manufactured by Syngenta), a wettable powder containing metribuzin as the active ingredient (tradename: SENCOR wettable powder, manufactured by Bayer Crop Science) or water dispersible granules containing pyroxasulfone as the active ingredient (tradename: Sakura, manufactured by Bayer Crop Science) were diluted with water (in an amount corresponding to 200 liter per hectare) containing 0.5 vol % of an agricultural spreader (tradename: Destiny HC, manufactured by Winfield Solutions, LLC.) and sprayed by a small spray gun (model: W-101-132G, manufactured by ANEST IWATA Corporation). On the 13th day after spraying, the state of growth of the waterhemp was visually observed, and the growth inhibition rate (%) was obtained in accordance with the evaluation standards described in the above (1) herbicidal effect test, and the results are shown in Table 12. Further, the expected value of the growth inhibition rate (%) was calculated in accordance with the Colby's formula described in the above (1) herbicidal effect test, and the results are also shown in Table 12.

In assay [2] the test system is soybean (cultivar: Enrei). The assay can be described thus: (23) Plant growth promotion effect test (soybean), Italian ryegrass sown, seed weight. The conditions noted are these: 97th day after the sowing. An excerpt:
Upland soil was put in a 1/200,000 hectare pot, and seeds of Italian ryegrass (Lolium multiflorum) were sown. When the Italian ryegrass reached 2.5 to 3.0 leaf stage, a water-based suspension containing tiafenacil as the active ingredient, prepared by a conventional method for preparing a water-based suspension, and an emulsifiable concentrate containing S-metolachlor as the active ingredient (tradename: Dual Gold, manufactured by Syngenta), a wettable powder containing metribuzin as the active ingredient (tradename: SENCOR wettable powder, manufactured by Bayer Crop Science), water dispersible granules containing pyroxasulfone as the active ingredient (tradename: Sakura, manufactured by Bayer Crop Science), a wettable powder containing tri-allate as the active ingredient, prepared by a conventional method for preparing a wettable powder, an emulsifiable concentrate containing pethoxamid as the active ingredient (tradename: Successor 600, manufactured by Stähler Suisse SA) or an emulsifiable concentrate containing dimethenamid-P as the active ingredient (tradename: Fieldstar P emulsifiable concentrate, manufactured by BASF) were diluted with water (in an amount corresponding to 200 liter per hectare) containing 0.5 vol % of an agricultural spreader (tradename: Destiny HC, manufactured by Winfield Solutions, LLC.) and sprayed by a small spray gun (model: W-101-132G, manufactured by ANEST IWATA Corporation). Seeds of soybean (cultivar: Enrei, manufactured by Asahi Noen Seed Co., Ltd.) were sown in the pot after spraying and the soybean was cultivated. On the 97th day after the sowing, seeds were collected from the grown soybean, and their weight was measured to obtain the total weight.

Assay [3] relates to soybean (cultivar: Enrei). As to the kind of experiment: (24) Plant growth promotion effect test (soybean), undesired plants not sown. The conditions noted are these: 48th day after the sowing, above-ground part. From the text: Upland soil was put in a 1/500,000 hectare pot, and a water-based suspension containing tiafenacil as the active ingredient, prepared by a conventional method for preparing a water-based suspension, and an emulsifiable concentrate containing S-metolachlor as the active ingredient (tradename: Dual Gold, manufactured by Syngenta), a wettable powder containing metribuzin as the active ingredient (tradename: SENCOR wettable powder, manufactured by Bayer Crop Science), water dispersible granules containing pyroxasulfone as the active ingredient (tradename: Sakura, manufactured by Bayer Crop Science), a wettable powder containing tri-allate as the active ingredient, prepared by a conventional method for preparing a wettable powder, an emulsifiable concentrate containing pethoxamid as the active ingredient (tradename: Successor 600, manufactured by Stähler Suisse SA) or an emulsifiable concentrate containing dimethenamid-P as the active ingredient (tradename: Fieldstar P emulsifiable concentrate, manufactured by BASF) were diluted with water (in an amount corresponding to 200 liter per hectare) containing 0.5 vol % of an agricultural spreader (tradename: Destiny HC, manufactured by Winfield Solutions, LLC.) and sprayed by a small spray gun (model: W-101-132G, manufactured by ANEST IWATA Corporation). Seeds of soybean (cultivar: Enrei, manufactured by Asahi Noen Seed Co., Ltd.) were sown in the pot after spraying. On the 48th day after the sowing, the above-ground part of the soybean was reaped, and its weight was measured to obtain the total weight.

The test system of assay [4] is goosegrass (Eleusine indica). The assay can be described thus: (11) Herbicidal effect test, pot, spray at 7.0 to 8.3 leaf stage. The conditions noted are these: 3rd day after spraying.
Text: as §1
Upland soil was put in a 1/1,000,000 hectare pot, and seeds of goosegrass (Eleusine indica) were sown. When goosegrass reached 7.0 to 8.3 leaf stage, a water-based suspension containing tiafenacil as the active ingredient, prepared by a conventional method for preparing a water-based suspension, and a wettable powder containing tri-allate as the active ingredient, prepared by a conventional method for preparing a wettable powder, an emulsifiable concentrate containing pethoxamid as the active ingredient (tradename: Successor 600, manufactured by Stähler Suisse SA) or an emulsifiable concentrate containing dimethenamid-P as the active ingredient (tradename: Fieldstar P emulsifiable concentrate, manufactured by BASF) were diluted with water (in an amount corresponding to 200 liter per hectare) containing 0.5 vol % of an agricultural spreader (tradename: Destiny HC, manufactured by Winfield Solutions, LLC.) and sprayed by a small spray gun (model: W-101-132G, manufactured by ANEST IWATA Corporation). On the 3rd day after spraying, the state of growth of the goosegrass was visually observed, and the growth inhibition rate (%) was obtained in accordance with the evaluation standards described in the above (1) herbicidal effect test, and the results are shown in Table 11. Further, the expected value of the growth inhibition rate (%) was calculated in accordance with the Colby's formula described in the above (1) herbicidal effect test, and the results are also shown in Table 11.

`CCc1cccc(C)c1N(C(=O)CCl)[C@@H](C)COC` [S-metolachlor]: the “Growth inhibition rate (%) Measured value” in assay [1] (Dose 7.5 g/ha), in assay [1] (Dose 375 g/ha) and in assay [1] (Dose 750 g/ha) was 0% each time. For the same molecule, the “Total weight (g) of soybean seeds” value in assay [2] (Dose 750 g/ha) worked out at 12.7 g. Besides, in assay [3] (Dose 75 g/ha), the “Raw weight (g) of soybean” value is given as 27.1 g.

Regarding `COC[C@H](C)N(C(=O)CCl)c1c(C)csc1C` [dimethenamid-P], in assay [2] (Dose 750 g/ha), the “Total weight (g) of soybean seeds” value came out at 14.1 g. The “Raw weight (g) of soybean” value in assay [3] (Dose 150 g/ha) was determined as 28.9 g. The “Growth inhibition rate (%) Measured value” in assay [4] (Dose 60 g/ha), in assay [4] (Dose 375 g/ha) and in assay [4] (Dose 750 g/ha) was 0% in each case.

What is called inhibition is the drop in the measured response relative to a control, in per cent. Turning to `CSc1nnc(C(C)(C)C)c(=O)n1N` [metribuzin], the inhibition at 9.38 g/ha in assay [1] (Amaranthus tuberculatus, Dose 9.38 g/ha, read-out: Growth inhibition rate (%) Measured value) came to 5%. In assay [1] (Amaranthus tuberculatus, Dose 550 g/ha, read-out: Growth inhibition rate (%) Measured value), the inhibition at 550 g/ha was found to be 37%. Moreover, in assay [1] (Amaranthus tuberculatus, Dose 1100 g/ha, read-out: Growth inhibition rate (%) Measured value), the inhibition at 1100 g/ha stood at 50%. The “Total weight (g) of soybean seeds” value in assay [2] (Dose 18.75 g/ha) turned out to be 14.2 g. Moreover, the “Raw weight (g) of soybean” value in assay [3] (Dose 150 g/ha) was 16.1 g.

Regarding `CCOCCN(C(=O)CCl)C(=C(C)C)c1ccccc1` [pethoxamid], the “Total weight (g) of soybean seeds” value in assay [2] (Dose 750 g/ha) is 11.0 g. In assay [3] (Dose 200 g/ha), the “Raw weight (g) of soybean” value is reported as 26.7 g. For the same molecule, the “Growth inhibition rate (%) Measured value” in assay [4] (Dose 93.8 g/ha), in assay [4] (Dose 375 g/ha) and in assay [4] (Dose 750 g/ha) was 0% throughout.

Regarding `Cn1nc(C(F)(F)F)c(CS(=O)(=O)C2=NOC(C)(C)C2)c1OC(F)F` [pyroxasulfone], in assay [1] (Amaranthus tuberculatus, Dose 7.5 g/ha, read-out: Growth inhibition rate (%) Measured value), the inhibition at 7.5 g/ha worked out at 10%. Moreover, the inhibition at 250 g/ha in assay [1] (Amaranthus tuberculatus, Dose 250 g/ha, read-out: Growth inhibition rate (%) Measured value) turned out to be 17%. The inhibition at 500 g/ha in assay [1] (Amaranthus tuberculatus, Dose 500 g/ha, read-out: Growth inhibition rate (%) Measured value) was 13%. The “Total weight (g) of soybean seeds” value in assay [2] (Dose 125 g/ha) stood at 15.6 g. Besides, in assay [3] (Dose 37.5 g/ha), the “Raw weight (g) of soybean” value is 30.0 g.

As to `COC(=O)CCNC(=O)C(C)Sc1cc(-n2c(=O)cc(C(F)(F)F)n(C)c2=O)c(F)cc1Cl` (stereo not shown) [tiafenacil], the “Growth inhibition rate (%) Measured value” in assay [1] (Dose 6.25 g/ha) is 33%; in assay [4] (Dose 6.25 g/ha), 77%. Moreover, in assay [2] (Dose 12.5 g/ha), the “Total weight (g) of soybean seeds” value is reported as 14.3 g. Besides, in assay [3] (Dose 3 g/ha), the “Raw weight (g) of soybean” value stood at 28.3 g.

Regarding `CC(C)N(C(=O)SCC(Cl)=C(Cl)Cl)C(C)C` [tri-allate], the “Total weight (g) of soybean seeds” value in assay [2] (Dose 625 g/ha) is given as 17.0 g. Further, the “Raw weight (g) of soybean” value in assay [3] (Dose 200 g/ha) was 18.2 g. Further, the inhibition at 75 g/ha in assay [4] (Eleusine indica, Dose 75 g/ha, read-out: Growth inhibition rate (%) Measured value) was determined as 0%. Besides, in assay [4] (Eleusine indica, Dose 625 g/ha, read-out: Growth inhibition rate (%) Measured value), the inhibition at 625 g/ha was found to be 0%. The inhibition at 1250 g/ha in assay [4] (Eleusine indica, Dose 1250 g/ha, read-out: Growth inhibition rate (%) Measured value) came to 5%.
